Consider 14 substances from patent US12115209B2, “ROMO1-derived antimicrobial peptides including lysine substitution and variants thereof” (KOREA UNIVERSITY RESEARCH AND BUSINESS FOUNDATION, priority 2019, dated 2024).

The test system of the first assay is Pseudomonas aeruginosa, Staphylococcus aureus, CRPA, MRSA. Kind of assay: Increase in antibacterial activity (MBC) compared with KU-5878. The assay is classed as cell-based. The following applies: mark = antibacterial activity increased compared with KU-5878.
Regarding “KKMM-KGGKF--FM-IG-GIR [d 62K 68G 69T 72A 75M]”, the Increase in activity entry is recorded as “◯”.
Same read-out and setting: the same measure for “KKMM-KGGKF-TF--IG-GIR [d 62K 68G 71M 72A 75M]”: “◯”; for KKMM-KGGKFGTF-AIG-GIR [d 62K 71M 75M]: “◯”; for “KKMM-KGGKFGTF-AIGMGIR [Peptide K4-d62K-d71M]”: “◯”.
Turning to “KKMM-KGGKFGTFMAIGMGIR [5878-K4-d62K(=d63K)]”, the Increase in activity result is recorded as “◯”.
For the substance KKMMKK-GKFGTF-AIG-GIR [d 64G 71M 75M], the Increase in activity result is given as “◯”.
In the case of “KKMMKK-GKFGTF-AIGMGIR [Peptide K4-d64G-d71M]”, the Increase in activity entry is “◯”.
“KKMMKK-GKFGTFMAIGMGIR [5878-K4-d64G(=d65G)]”: the Increase in activity entry is reported as “◯”.
Turning to “KKMMKKGG-FGTFMAIGMGIR [Peptide 5878-K4-d66K]”, the Increase in activity entry is “◯”.
The same measure, in the same setting: the same measure for “KKMMKKGGK-GTFMAIGMGIR [Peptide 5878-K4-d67F]”: “◯”; for “KKMMKKGGKF-TFMAIGMGIR [Peptide 5878-K4-d68G]”: “◯”.
Take KKMMKKGGKFG-F--IGMGIR [d 69T 71M 72A]: the Increase in activity entry was “◯”.
Consider KKMMKKGGKFG-F-AIG-GIR [d 69T 71M 75M], for which the Increase in activity entry is reported as “◯”.
Turning to “KKMMKKGGKFG-F-AIGMGIR [Peptide K4-d69T-d71M]”, the Increase in activity result is recorded as “◯”.

Another assay has as its system Methicillin-resistant Staphylococcus aureus (MRSA, ATCC 33591). Briefly: Minimum bactericidal concentration (MBC) assay. The assay is classed as cell-based. The following applies: Tables 11-21, no unit printed. As to the method: First, each of Pseudomonas aeruginosa (ATCC 27853) and Staphylococcus aureus (ATCC 29213) was cultured in 3% (w/v) TSB (tryptic soy broth) liquid medium at 37° C. and 200 rpm for 4 hours, and then further cultured under the same conditions for 3 hours to a concentration of 5×10^6 CFU/ml. Strain solutions were prepared by diluting each of the further cultured strains with SP (sodium phosphate; 10 mM sodium phosphate, 1% TSB) buffer to a final concentration of 2×10^5 CFU/ml. […]
(§1) In addition, 30 g/L of TS (tryptic soy) and 15 g/L of agar were dissolved in distilled water and sterilized, and then 25 ml of the solution was poured onto a 100 mm round plate and solidified at room temperature for one day or more, thereby preparing a TS agar plate. 10 μl of each reaction solution of the peptide and the strain was plated on the TS agar plate at a constant size, and incubated in an incubator at 37° C. for 18 hours, and then colony formation on the plate was checked.
Specifically, each type of bacteria was cultured in 3% (w/v) TSB (tryptic soy broth) liquid medium at 37° C. and 200 rpm for 4 hours, and then further cultured under the same conditions for 3 hours to a concentration of 5×10^6 CFU/ml. Strain solutions were prepared by diluting each of the further cultured strains with SP buffer to a final concentration of 2×10^5 CFU/ml.
Then, the KU-5878 peptide at varying concentrations (0 μg/ml to 300 μg/ml) was dispensed into each well of a 96-well microplate, and 100 μl (1×10^5 CFU/ml) of each of the prepared strain solutions was added thereto, mixed therewith, and allowed to react with the peptide in an incubator at 37° C. for 1 hour.
In addition, 10 μl of each reaction solution of the peptide and the strain was plated on the TS agar plate at a constant size, and incubated in an incubator at 37° C. for 18 hours, and then colony formation on the plate was checked.
In turn, “KKMM-KGGKF--FM-IG-GIR [d 62K 68G 69T 72A 75M]” yielded an MBC MRSA of 10 µg/mL.
In turn, “KKMM-KGGKF-TF--IG-GIR [d 62K 68G 71M 72A 75M]” yielded an MBC MRSA of 25 µg/mL.
Substance KKMM-KGGKFGTF-AIG-GIR [d 62K 71M 75M] gave an MBC MRSA of 3 µg/mL.
“KKMM-KGGKFGTF-AIGMGIR [Peptide K4-d62K-d71M]” showed an MBC MRSA of 12 µg/mL.
As to “KKMM-KGGKFGTFMAIGMGIR [5878-K4-d62K(=d63K)]”, the MBC MRSA was 6 µg/mL.
The same measure, in the same setting: the same measure for KKMMKK-GKFGTF-AIG-GIR [d 64G 71M 75M]: 3 µg/mL; for “KKMMKK-GKFGTF-AIGMGIR [Peptide K4-d64G-d71M]”: 18 µg/mL.
The substance “KKMMKK-GKFGTFMAIGMGIR [5878-K4-d64G(=d65G)]” came in with an MBC MRSA of 2 µg/mL.
“KKMMKKGG-FGTFMAIGMGIR [Peptide 5878-K4-d66K]” came in with an MBC MRSA of 4 µg/mL.
With “KKMMKKGGK-GTFMAIGMGIR [Peptide 5878-K4-d67F]”, the MBC MRSA is 4 µg/mL.
In turn, “KKMMKKGGKF-TFMAIGMGIR [Peptide 5878-K4-d68G]” gave an MBC MRSA of 4 µg/mL.
On to KKMMKKGGKFG-F--IGMGIR [d 69T 71M 72A], for which the MBC MRSA amounted to 4 µg/mL.
KKMMKKGGKFG-F-AIG-GIR [d 69T 71M 75M] had an MBC MRSA of 2 µg/mL.
Still for that read-out and setting: to “KKMMKKGGKFG-F-AIGMGIR [Peptide K4-d69T-d71M]” belongs 12 µg/mL.

The subject of a further assay is Pseudomonas aeruginosa (ATCC 27853). Kind of assay: Minimum bactericidal concentration (MBC) assay. The assay is classed as cell-based. Particulars: Tables 11-21, no unit printed. As to the method: (§2) First, each of Pseudomonas aeruginosa (ATCC 27853) and Staphylococcus aureus (ATCC 29213) was cultured in 3% (w/v) TSB (tryptic soy broth) liquid medium at 37° C. and 200 rpm for 4 hours, and then further cultured under the same conditions for 3 hours to a concentration of 5×10^6 CFU/ml. Strain solutions were prepared by diluting each of the further cultured strains with SP (sodium phosphate; 10 mM sodium phosphate, 1% TSB) buffer to a final concentration of 2×10^5 CFU/ml.
(§3) Then, each peptide at varying concentrations (0 μg/ml to 300 μg/ml) was dispensed into each well of a 96-well microplate, and 100 μl (1×10^5 CFU/ml) of each of the prepared strain solutions was added thereto, mixed therewith, and allowed to react with the peptide in an incubator at 37° C. for 1 hour.
as §1, with “checked. The minimum bactericidal concentration was defined as the minimum concentration of the peptide at which no colony was formed, and the experimental results are shown in Table 1 below.” for “checked.”
Substance “KKMM-KGGKF--FM-IG-GIR [d 62K 68G 69T 72A 75M]” came in with an MBC Pseudomonas aeruginosa of 8 µg/mL.
As to “KKMM-KGGKF-TF--IG-GIR [d 62K 68G 71M 72A 75M]”, the MBC Pseudomonas aeruginosa is 20 µg/mL.
KKMM-KGGKFGTF-AIG-GIR [d 62K 71M 75M]: the MBC Pseudomonas aeruginosa is 3 µg/mL.
In turn, “KKMM-KGGKFGTF-AIGMGIR [Peptide K4-d62K-d71M]” returned an MBC Pseudomonas aeruginosa of 12 µg/mL.
In turn, “KKMM-KGGKFGTFMAIGMGIR [5878-K4-d62K(=d63K)]” displayed an MBC Pseudomonas aeruginosa of 2 µg/mL.
KKMMKK-GKFGTF-AIG-GIR [d 64G 71M 75M] had an MBC Pseudomonas aeruginosa of 2 µg/mL.
Regarding “KKMMKK-GKFGTF-AIGMGIR [Peptide K4-d64G-d71M]”, the MBC Pseudomonas aeruginosa was found to be 15 µg/mL.
Turning to “KKMMKK-GKFGTFMAIGMGIR [5878-K4-d64G(=d65G)]”, the MBC Pseudomonas aeruginosa came to 2 µg/mL.
In the case of “KKMMKKGG-FGTFMAIGMGIR [Peptide 5878-K4-d66K]”, the MBC Pseudomonas aeruginosa came to 4 µg/mL.
Still for that read-out and setting: the same measure for “KKMMKKGGK-GTFMAIGMGIR [Peptide 5878-K4-d67F]”: 4 µg/mL; for “KKMMKKGGKF-TFMAIGMGIR [Peptide 5878-K4-d68G]”: 4 µg/mL.
For the substance KKMMKKGGKFG-F--IGMGIR [d 69T 71M 72A], the MBC Pseudomonas aeruginosa was determined as 2 µg/mL.
KKMMKKGGKFG-F-AIG-GIR [d 69T 71M 75M]: the MBC Pseudomonas aeruginosa is 2 µg/mL.
Substance “KKMMKKGGKFG-F-AIGMGIR [Peptide K4-d69T-d71M]” yielded an MBC Pseudomonas aeruginosa of 10 µg/mL.

The next assay concerns CRPA. Briefly: Minimum bactericidal concentration (MBC) assay. Type of assay: cell-based. The following applies: Tables 11-21, no unit printed.
In the case of “KKMM-KGGKF--FM-IG-GIR [d 62K 68G 69T 72A 75M]”, the MBC CRPA was found to be 8 µg/mL.
On the same count and under the same terms, to “KKMM-KGGKF-TF--IG-GIR [d 62K 68G 71M 72A 75M]” belongs 20 µg/mL; to KKMM-KGGKFGTF-AIG-GIR [d 62K 71M 75M], 4 µg/mL.
The substance “KKMM-KGGKFGTF-AIGMGIR [Peptide K4-d62K-d71M]” showed an MBC CRPA of 12 µg/mL.
Turning to “KKMM-KGGKFGTFMAIGMGIR [5878-K4-d62K(=d63K)]”, the MBC CRPA was 6 µg/mL.
Consider KKMMKK-GKFGTF-AIG-GIR [d 64G 71M 75M], for which the MBC CRPA turned out to be 3 µg/mL.
“KKMMKK-GKFGTF-AIGMGIR [Peptide K4-d64G-d71M]” registered an MBC CRPA of 18 µg/mL.
The substance “KKMMKK-GKFGTFMAIGMGIR [5878-K4-d64G(=d65G)]” came in with an MBC CRPA of 4 µg/mL.
Same read-out and setting: to “KKMMKKGG-FGTFMAIGMGIR [Peptide 5878-K4-d66K]” belongs 4 µg/mL; to “KKMMKKGGK-GTFMAIGMGIR [Peptide 5878-K4-d67F]”, 5 µg/mL; to “KKMMKKGGKF-TFMAIGMGIR [Peptide 5878-K4-d68G]”, 6 µg/mL.
The substance KKMMKKGGKFG-F--IGMGIR [d 69T 71M 72A] showed an MBC CRPA of 3 µg/mL.
In turn, KKMMKKGGKFG-F-AIG-GIR [d 69T 71M 75M] registered an MBC CRPA of 3 µg/mL.
Same read-out and setting: the same measure for “KKMMKKGGKFG-F-AIGMGIR [Peptide K4-d69T-d71M]”: 12 µg/mL.

In the next assay the test system is Staphylococcus aureus (ATCC 29213). Kind of assay: Minimum bactericidal concentration (MBC) assay. Type of assay: cell-based. Particulars: Tables 11-21, no unit printed. As to the method: as §2, §3
as §1, with “checked. The minimum bactericidal concentration was defined as the minimum concentration of the peptide at which no colony was formed, and the experimental results are shown in Table 1 below.” for “checked.”
The substance “KKMM-KGGKF--FM-IG-GIR [d 62K 68G 69T 72A 75M]” showed an MBC Staphylococcus aureus of 8 µg/mL.
Same read-out and setting: the same measure for “KKMM-KGGKF-TF--IG-GIR [d 62K 68G 71M 72A 75M]”: 20 µg/mL.
Still for that read-out and setting: the same measure for KKMM-KGGKFGTF-AIG-GIR [d 62K 71M 75M]: 4 µg/mL.
“KKMM-KGGKFGTF-AIGMGIR [Peptide K4-d62K-d71M]”: the MBC Staphylococcus aureus was determined as 12 µg/mL.
“KKMM-KGGKFGTFMAIGMGIR [5878-K4-d62K(=d63K)]” had an MBC Staphylococcus aureus of 6 µg/mL.
In turn, KKMMKK-GKFGTF-AIG-GIR [d 64G 71M 75M] returned an MBC Staphylococcus aureus of 3 µg/mL.
Same read-out and setting: to “KKMMKK-GKFGTF-AIGMGIR [Peptide K4-d64G-d71M]” belongs 15 µg/mL; to “KKMMKK-GKFGTFMAIGMGIR [5878-K4-d64G(=d65G)]”, 2 µg/mL.
Consider “KKMMKKGG-FGTFMAIGMGIR [Peptide 5878-K4-d66K]”, for which the MBC Staphylococcus aureus was found to be 6 µg/mL.
For “KKMMKKGGK-GTFMAIGMGIR [Peptide 5878-K4-d67F]”, the MBC Staphylococcus aureus amounted to 6 µg/mL.
For “KKMMKKGGKF-TFMAIGMGIR [Peptide 5878-K4-d68G]”, the MBC Staphylococcus aureus came to 4 µg/mL.
For the substance KKMMKKGGKFG-F--IGMGIR [d 69T 71M 72A], the MBC Staphylococcus aureus was found to be 2 µg/mL.
Still for that read-out and setting: the same measure for KKMMKKGGKFG-F-AIG-GIR [d 69T 71M 75M]: 2 µg/mL; for “KKMMKKGGKFG-F-AIGMGIR [Peptide K4-d69T-d71M]”: 10 µg/mL.
